In patent US9907859B2 (priority 2010, dated 2018):
Like-named read-outs stand apart in the source and are kept apart here.

Tests used:
in vivo [1] = details: both, cynomolgus monkey; for AUC(0-inf): AUCINF—obs; for bioavailability: cynomolgus, po
VV = details: in vivo; cited from earlier work
in vivo [2] = details: for AUC(0-t) / Cmax / half-life / clearance: iv
[3] = New Zealand White, rabbit, in vivo

O=C(NN1C(=O)C2C3C=CC(C4CC34)C2C1=O)c1ccc(C(F)(F)F)cc1 (centres unmarked) [ST-246, 4-trifluoromethyl-N-(3,3a,4,4a,5,5a,6,6a-octahydro-1,3-dioxo-4,6-ethenocycloprop[f]isoindol-2(1H)-yl)-benzamide]
half-life (in vivo [1]; iv, 3 mg/kg, T1/2): 8.5 ± 3.2 h
Tmax (in vivo [1]; iv, 3 mg/kg): 4 h
AUC(0-t) (in vivo [1]; iv, 10 mg/kg): 21.1 ± 3.45 µg·h/mL
AUC(0-inf) (in vivo [1]; iv, 10 mg/kg): 21.3 ± 3.4 µg·h/mL
clearance (in vivo [1]; iv, 10 mg/kg, CL): 7.97 mL/min/kg
Cmax (in vivo [1]; iv, 10 mg/kg): 4.4 ± 0.935 µg/mL
half-life (in vivo [1]; iv, 10 mg/kg, T1/2): 8.6 ± 1.3 h
Tmax (in vivo [1]; iv, 10 mg/kg): 4 h
AUC(0-inf) (in vivo [1]; iv, 15 mg/kg): 32.5 ± 5.7 µg·h/mL
clearance (in vivo [1]; iv, 15 mg/kg, CL): 5.85 mL/min/kg
Cmax (in vivo [1]; iv, 15 mg/kg): 7.36 ± 1.47 µg/mL
half-life (in vivo [1]; iv, 15 mg/kg, T1/2): 9.1 ± 2.6 h
Tmax (in vivo [1]; iv, 15 mg/kg): 4 h
AUC(0-inf) (in vivo [1]; iv, 20 mg/kg): 59.6 ± 10.1 µg·h/mL
clearance (in vivo [1]; iv, 20 mg/kg, CL): 5.88 mL/min/kg
Cmax (in vivo [1]; iv, 20 mg/kg): 11.8 ± 2 µg/mL
half-life (in vivo [1]; iv, 20 mg/kg, T1/2): 8.7 ± 2.5 h
Tmax (in vivo [1]; iv, 20 mg/kg): 4 h
AUC(0-inf) (in vivo [1]; iv, 30 mg/kg): 100 ± 18 µg·h/mL
clearance (in vivo [1]; iv, 30 mg/kg, CL): 5.12 mL/min/kg
Cmax (in vivo [1]; iv, 30 mg/kg): 20.1 ± 4.2 µg/mL
half-life (in vivo [1]; iv, 30 mg/kg, T1/2): 7.8 ± 0.7 h
Tmax (in vivo [1]; iv, 30 mg/kg): 4 h
clearance (in vivo [1]; iv, clearance): ~8.33 mL/min/kg
half-life (in vivo [1]; iv, elimination half-lives): 6.6 to 9.1 h
half-life (in vivo [1]; iv, terminal elimination half-life): 6.6 to 8.6 h
half-life (in vivo [1]; terminal elimination half-life): 8.9 h
bioavailability (in vivo [1]; 3 mg/kg): 77%
bioavailability (in vivo [1]; 20 mg/kg): 31%
bioavailability (in vivo [1]; 30 mg/kg): 31%
preventing or reducing mortality (VV): highly effective in preventing or reducing mortality
toxicity in animal model (VV): nontoxic
bioavailability (in vivo [2]; female, BALB/c (oral), CD-1 (IV), mouse, 30 mg/kg): ~41%
AUC(0-t) (in vivo [2]; female, BALB/c, mouse, 2.3 mg/kg, AUC0-24): 87.8 µg·h/mL
Cmax (in vivo [2]; female, BALB/c, mouse, 2.3 mg/kg, Cmax): 22.4 µg/mL
AUC(0-t) (in vivo [2]; female, BALB/c, mouse, 3 mg/kg, AUC0-24): 100 µg·h/mL
Cmax (in vivo [2]; female, BALB/c, mouse, 3 mg/kg, Cmax): 78.4 µg/mL
AUC(0-t) (in vivo [2]; female, BALB/c, mouse, 7.6 mg/kg, AUC0-24): 218 µg·h/mL
Cmax (in vivo [2]; female, BALB/c, mouse, 7.6 mg/kg, Cmax): 37.6 µg/mL
AUC(0-t) (in vivo [2]; female, BALB/c, mouse, 30 mg/kg, AUC0-24): 300 µg·h/mL
Cmax (in vivo [2]; female, BALB/c, mouse, 30 mg/kg, Cmax): 149 µg/mL
AUC(0-t) (in vivo [2]; female, BALB/c, mouse, 34.3 mg/kg, AUC0-24): 873 µg·h/mL
Cmax (in vivo [2]; female, BALB/c, mouse, 34.3 mg/kg, Cmax): 162 µg/mL
half-life (in vivo [2]; female, CD-1, mouse): 2.5 to 4.5 h
clearance (in vivo [2]; female, CD-1, mouse, 3 mg/kg): 0.717 mL/min/kg
half-life (in vivo [2]; female, CD-1, mouse, 3 mg/kg): 4.5 h
AUC(0-t) (in vivo [2]; female, CD-1, mouse, 3 mg/kg, AUC0-24): 67.9 µg·h/mL
AUC(0-t) (in vivo [2]; female, CD-1, mouse, 3 mg/kg, AUC0-24 hr): 68 µg·h/mL
Cmax (in vivo [2]; female, CD-1, mouse, 3 mg/kg, Cmax): 16.7 µg/mL
clearance (in vivo [2]; female, CD-1, mouse, 10 mg/kg): 0.417 mL/min/kg
half-life (in vivo [2]; female, CD-1, mouse, 10 mg/kg): 2.8 h
AUC(0-t) (in vivo [2]; female, CD-1, mouse, 10 mg/kg, AUC0-24): 408 µg·h/mL
AUC(0-t) (in vivo [2]; female, CD-1, mouse, 10 mg/kg, AUC0-24 hr): 408 µg·h/mL
Cmax (in vivo [2]; female, CD-1, mouse, 10 mg/kg, Cmax): 63.5 µg/mL
clearance (in vivo [2]; female, CD-1, mouse, 30 mg/kg): 0.7 mL/min/kg
half-life (in vivo [2]; female, CD-1, mouse, 30 mg/kg): 2.5 h
AUC(0-t) (in vivo [2]; female, CD-1, mouse, 30 mg/kg, AUC0-24): 709 µg·h/mL
AUC(0-t) (in vivo [2]; female, CD-1, mouse, 30 mg/kg, AUC0-24 hr): 709 µg·h/mL
Cmax (in vivo [2]; female, CD-1, mouse, 30 mg/kg, Cmax): 127 µg/mL
clearance (in vivo [2]; female, CD-1, mouse, 75 mg/kg): 1 mL/min/kg
half-life (in vivo [2]; female, CD-1, mouse, 75 mg/kg): 2.8 h
AUC(0-t) (in vivo [2]; female, CD-1, mouse, 75 mg/kg, AUC0-24): 1250 µg·h/mL
AUC(0-t) (in vivo [2]; female, CD-1, mouse, 75 mg/kg, AUC0-24 hr): 1250 µg·h/mL
Cmax (in vivo [2]; female, CD-1, mouse, 75 mg/kg, Cmax): 238 µg/mL
Cmax (in vivo [2]; female, CD-1, mouse, 75 mg/kg, mean Cmax): 238 µg/mL
Cmax (in vivo [2]; female, mouse, 30 mg/kg, Cmax): 120 µg/mL
AUC(0-t) (in vivo [2]; male, BALB/c, mouse, 2.3 mg/kg, AUC0-24): 73.3 µg·h/mL
Cmax (in vivo [2]; male, BALB/c, mouse, 2.3 mg/kg, Cmax): 20 µg/mL
AUC(0-t) (in vivo [2]; male, BALB/c, mouse, 7.6 mg/kg, AUC0-24): 170 µg·h/mL
Cmax (in vivo [2]; male, BALB/c, mouse, 7.6 mg/kg, Cmax): 53.8 µg/mL
AUC(0-t) (in vivo [2]; male, BALB/c, mouse, 34.3 mg/kg, AUC0-24): 798 µg·h/mL
Cmax (in vivo [2]; male, BALB/c, mouse, 34.3 mg/kg, Cmax): 191 µg/mL
AUC0-24 hr ([3]; both, iv, 3 mg/kg): 3.39 ± 1.07 µg·h/mL
CL ([3]; both, iv, 3 mg/kg): 16.1 ± 6.05 mL/min/kg
mean maximum plasma concentration ([3]; both, iv, 30 mg/kg): 38.5 µg/mL
peak plasma concentration ([3]; female, 3 mg/kg): 4345 ng/mL
peak plasma concentration ([3]; male, 3 mg/kg): 7225 ng/mL
